Test results from patent US7160708B2, “Fatty alcohol oxidase genes and proteins from Candida tropicalis and methods relating thereto” (Cognis Corporation, priority 2002, dated 2007).

Columns and labels:
FAO1 or FAO2 = test: Alcohols used for substrate specificity testing, activity detected with either enzyme; assay type: biochemical, Candida tropicalis; set-up: key: X: Activity detected using this substrate with either FAO1 or FAO2; conditions: final alcohol concentration 200 μM
Text: The assay procedure used is a modification of an assay used by Kemp et al (1). The assay is a two-enzyme coupled reaction. Dodecanol was used as the substrate for the FAO, which oxidizes the dodecanol to dodecanal. At the same time it reduces molecular oxygen to hydrogen peroxide. A second enzyme in the reaction mixture, peroxidase derived from horseradish (HRP), uses electrons obtained by oxidizing hydrogen peroxide to […] 2,2′-azino-bis(3-ethylbenzthiazoline-6-sulfonic acid) (ABTS) in the reaction mixture. […] absorbs strongly at 405 nm. The quality of HRP is important, since it has been observed that commercially obtained preparations vary in quality. It is necessary, therefore, to obtain preparations of highest purity. The HRP (Sigma #P8415) was made at a concentration of 2 mg/ml (≈250 units/mg) in 50 mM potassium phosphate buffer, pH 7.6.
After adding the extract, the activity was generally read at 405 nm for one minute at room temperature. The amount of extract that was added to the reaction mixture was varied so that the activity fell within the range of 0.2 to 1.0 ΔA^405 nm/min. Alcohol oxidase activity was reported as specific activity units/mg protein (1 unit=μmole substrate oxidized/min). An extinction coefficient at 405 nm of 18.4 was used for ABTS and was equivalent to 0.5 mM oxidized substrate. In certain substrate-specificity experiments, 200 mM HEPES buffer, pH 7.6, containing 0.5% Triton X100 was used in place of the 200 mM HEPES buffer in the reaction mixture described above. The detergent aided in solubilizing some of the more water-insoluble substrates tested.
FAO1, FAO2a and FAO2a′ were tested for their activity with various alcohols. The alcohols shown in Table 5 were prepared in 20 mM stock solutions in acetone. Alcohols showing activity with either FAO1 or FAO2a are indicated. The final concentration of the alcohol used in the substrate specificity experiment was 200 μM. These same alcohols were used to determine the Km and Vmax of FAO1, FAO2a, and FAO2a′. […] There was a big drop in activity in going from a C8 alcohol to a C6 alcohol with FAO1, FAO2a, and FAO2a′. FAO2a and FAO2a′ oxidize 2-octanols fairly well; however no activity was detected with FAO1. In contrast, FAO1 oxidizes ω-hydroxy fatty acids well, but no activity for ω-hydroxy fatty acids was measured with FAO2a and FAO2a′ (FIG. 6). […] Although the substrate specificity of FAO2b was not performed, due to the close homology with FAO2a, it is likely to be very similar.

[1] = tested on: FAO from C. tropicalis (ATCC 20336); conditions: cited from earlier work; for Oxidation by C. tropicalis FAO (Kemp et al. 1988): cells grown on hexadecane; for Oxidation by purified C. tropicalis FAO: purified enzyme (ref. 3)
CCCCCCCCCCC(O)CO = test: purified protein, by the assay type
CCCCCCCCO = test: purified protein, by the assay type
CCCCCCCCCCC(C)O = test: purified protein, by the assay type
CCCCCCCCCC(C)O = test: purified protein, by the assay type
OCCCCCCCCCCCCCCCCO = test: purified protein, by the assay type
CCCCCCCCCCCCO = test: purified protein, by the assay type
OCCCCCCCCCCO = test: purified protein, by the assay type
CCCCCCCCCCCCCCC(C)O = test: purified protein, by the assay type
CCCCCCCCCCCCCCO = test: purified protein, by the assay type
CCCCCCCCC(C)O = test: purified protein, by the assay type
CCCCCCCCCCO = test: purified protein, by the assay type
CCCCCCCCCCCCCCCCO = test: purified protein, by the assay type
C=CCCCCCCCCCO = test: purified protein, by the assay type
FAO2a′ = FAO2a′ (Candida tropicalis, UniProt Q6QIR5); test: FAO enzyme assay (HRP/ABTS coupled) with FAO2a′ (CTG-codon-altered FAO2a) expressed in E. coli: substrate specificity and Km; conditions: 200 μM alcohol; relative to dodecanol set at 100%; FIG. 4-6
Description: The assay is a two-enzyme coupled reaction. […] At the same time it reduces molecular oxygen to hydrogen peroxide. A second enzyme in the reaction mixture, peroxidase derived from horseradish (HRP), uses electrons obtained by oxidizing hydrogen peroxide to reduce 2,2′-azino-bis(3-ethylbenzthiazoline-6-sulfonic acid) (ABTS) in the reaction mixture. Reduced ABTS absorbs strongly at 405 nm. […] The HRP (Sigma #P8415) was made at a concentration of 2 mg/ml (≈250 units/mg) in 50 mM potassium phosphate buffer, pH 7.6.
Initially, only the properties of the enzyme derived from the native sequence of FAO2a were determined. […] The properties of both FAO2a and FAO2a′ were determined as described in the following examples.
FAO1, FAO2a and FAO2a′ were tested for their activity with various alcohols. The alcohols shown in Table 5 were prepared in 20 mM stock solutions in acetone. […] The final concentration of the alcohol used in the substrate specificity experiment was 200 μM. These same alcohols were used to determine the Km and Vmax of FAO1, FAO2a, and FAO2a′.
(§2) In this case, all reactions contained the same amount of acetone (20 μl/ml).

FAO2a = FAO2a (Candida tropicalis, UniProt Q6QIR5, S177L); assay type: biochemical; conditions: for Activity of FAO2a with the alcohol (substrate specificity): 200 μM alcohol, relative to dodecanol set at 100%, FIG. 4-6; for Km FAO2a: pH 7.6, HEPES/Triton X-100 buffer, enzyme constant, alcohol concentration varied
Text: (§1) The assay is a two-enzyme coupled reaction. […] ABTS absorbs strongly at 405 nm.

fatty alcohol oxidase = test: FAO activity of extracts made from fermentor samples induced with HOSFFA; assay type: biochemical, Candida tropicalis; conditions: data not shown
Text: as §1

FAO1 = FAO1 (Candida tropicalis, UniProt Q6QIR6); test: FAO enzyme assay (HRP/ABTS coupled) with FAO1 expressed in E. coli: substrate specificity and Km; conditions: for Activity of FAO1 with the alcohol (substrate specificity): 200 μM alcohol, relative to dodecanol set at 100%, FIG. 4-6
Text: as §1

O=C(O)CCCCCCCCCCCCCCCO = test: purified protein, by the assay type; conditions: other: pH 7.6, HEPES/Triton X-100 buffer, enzyme constant, alcohol concentration varied
Text: The assay is a two-enzyme coupled reaction. […] At the same time it reduces molecular oxygen to hydrogen peroxide. A second enzyme in the reaction mixture, peroxidase derived from horseradish (HRP), uses electrons obtained by oxidizing hydrogen peroxide to reduce 2,2′-azino-bis(3-ethylbenzthiazoline-6-sulfonic acid) (ABTS) in the reaction mixture. Reduced ABTS absorbs strongly at 405 nm. The quality of HRP is important, since it has been observed that commercially obtained preparations vary in quality. It is necessary, therefore, to obtain preparations of highest purity. The HRP (Sigma #P8415) was made at a concentration of 2 mg/ml (≈250 units/mg) in 50 mM potassium phosphate buffer, pH 7.6.
FAO1, FAO2a and FAO2a′ were tested for their activity with various alcohols. […] The final concentration of the alcohol used in the substrate specificity experiment was 200 μM. These same alcohols were used to determine the Km and Vmax of FAO1, FAO2a, and FAO2a′.
as §2

FAO from C. maltosa = conditions: cited from earlier work
[2] = other: 0.1 M HEPES, pH 7.6, substrate stocks in acetone (20 μl/ml)
[3] = other: pH 7.6, HEPES/Triton X-100 buffer, enzyme constant, alcohol concentration varied

Sequence of FAO2a (Q6QIR5 whole entry S177L): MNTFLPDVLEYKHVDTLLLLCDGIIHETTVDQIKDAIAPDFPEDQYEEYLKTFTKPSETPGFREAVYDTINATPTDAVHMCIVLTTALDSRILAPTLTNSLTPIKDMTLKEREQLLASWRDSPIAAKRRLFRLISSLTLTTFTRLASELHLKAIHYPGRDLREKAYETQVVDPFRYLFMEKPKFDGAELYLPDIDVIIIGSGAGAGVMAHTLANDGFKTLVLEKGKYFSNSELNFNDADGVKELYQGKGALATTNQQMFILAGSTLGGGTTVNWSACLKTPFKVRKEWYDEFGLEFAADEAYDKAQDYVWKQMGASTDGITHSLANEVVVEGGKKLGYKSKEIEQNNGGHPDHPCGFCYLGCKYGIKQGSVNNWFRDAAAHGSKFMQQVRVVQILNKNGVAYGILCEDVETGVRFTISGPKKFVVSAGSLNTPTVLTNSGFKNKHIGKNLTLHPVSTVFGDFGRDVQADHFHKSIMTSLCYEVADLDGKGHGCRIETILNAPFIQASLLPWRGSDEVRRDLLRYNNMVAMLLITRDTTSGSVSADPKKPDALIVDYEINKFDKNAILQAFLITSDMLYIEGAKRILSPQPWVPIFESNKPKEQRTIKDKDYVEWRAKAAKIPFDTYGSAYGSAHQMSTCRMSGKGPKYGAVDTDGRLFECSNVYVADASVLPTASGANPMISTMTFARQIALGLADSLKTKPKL
Sequence of FAO1 (Q6QIR6 entry or part of it): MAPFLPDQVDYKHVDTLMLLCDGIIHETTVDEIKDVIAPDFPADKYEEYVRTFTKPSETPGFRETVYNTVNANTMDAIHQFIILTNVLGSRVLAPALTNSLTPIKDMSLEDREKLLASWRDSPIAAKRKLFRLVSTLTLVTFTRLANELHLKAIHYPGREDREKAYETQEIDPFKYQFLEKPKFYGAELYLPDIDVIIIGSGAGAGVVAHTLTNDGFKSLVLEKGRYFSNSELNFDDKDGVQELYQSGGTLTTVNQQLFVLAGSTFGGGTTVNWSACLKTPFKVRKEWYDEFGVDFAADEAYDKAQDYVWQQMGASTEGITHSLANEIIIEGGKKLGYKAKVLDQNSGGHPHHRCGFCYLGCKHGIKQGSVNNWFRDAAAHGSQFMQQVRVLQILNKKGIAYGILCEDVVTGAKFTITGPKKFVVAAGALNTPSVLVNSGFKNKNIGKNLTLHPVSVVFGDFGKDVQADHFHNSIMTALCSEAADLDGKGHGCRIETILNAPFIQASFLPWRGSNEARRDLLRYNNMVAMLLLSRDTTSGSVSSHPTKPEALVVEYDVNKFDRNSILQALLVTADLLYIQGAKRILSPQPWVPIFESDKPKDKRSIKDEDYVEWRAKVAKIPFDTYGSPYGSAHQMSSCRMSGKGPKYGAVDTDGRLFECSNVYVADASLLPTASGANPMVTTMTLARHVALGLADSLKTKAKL
Sequence of FAO2a′ (Q6QIR5 entry or part of it): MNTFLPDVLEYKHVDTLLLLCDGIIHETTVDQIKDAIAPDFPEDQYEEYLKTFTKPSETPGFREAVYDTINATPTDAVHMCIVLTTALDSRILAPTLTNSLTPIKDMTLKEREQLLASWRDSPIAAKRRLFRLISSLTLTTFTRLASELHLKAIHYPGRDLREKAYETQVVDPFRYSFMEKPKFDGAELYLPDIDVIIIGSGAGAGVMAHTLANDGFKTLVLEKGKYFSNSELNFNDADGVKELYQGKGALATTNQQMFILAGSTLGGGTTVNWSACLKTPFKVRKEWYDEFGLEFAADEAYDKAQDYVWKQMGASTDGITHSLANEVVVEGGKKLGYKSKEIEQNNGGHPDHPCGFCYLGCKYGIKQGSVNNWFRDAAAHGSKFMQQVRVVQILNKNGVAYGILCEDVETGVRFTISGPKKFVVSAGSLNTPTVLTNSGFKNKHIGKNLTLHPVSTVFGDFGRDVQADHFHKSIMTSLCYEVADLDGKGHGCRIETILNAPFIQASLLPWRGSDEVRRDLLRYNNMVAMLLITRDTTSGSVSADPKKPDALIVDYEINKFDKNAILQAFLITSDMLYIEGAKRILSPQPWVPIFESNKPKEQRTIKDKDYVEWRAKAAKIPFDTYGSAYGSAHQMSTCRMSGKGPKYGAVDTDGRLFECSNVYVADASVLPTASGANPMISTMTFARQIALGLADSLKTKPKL

OCCCCCCCCCCO [1,10-Decanediol]
Activity Detected (FAO1 or FAO2): X

CCCCCCCCCCC(O)CO (centres unmarked) [1,2-Dodecanediol]
Activity Detected (FAO1 or FAO2): X

O=C(O)CCCCCCCCCCCO [12-Hydroxydodecanoic acid]
Activity Detected (FAO1 or FAO2): X | Oxidation by C. tropicalis FAO (Kemp et al. 1988) [1]: not | Oxidation by purified C. tropicalis FAO [1]: additional activity

FAO2a′ (Candida tropicalis)
Km (CCCCCCCCCCC(O)CO; [2]): 928 µM | Km (CCCCCCCCO; [2]): 654 µM | Km (CCCCCCCCCCC(C)O; [2]): 75.3 µM | Km (CCCCCCCCCC(C)O; [2]): 162 µM | Km (OCCCCCCCCCCCCCCCCO; [2]): 16.3 µM | Km (CCCCCCCCCCCCO; [2]): 4.4 µM | Km (OCCCCCCCCCCO; [2]): 1607 µM | Km (CCCCCCCCCCCCCCC(C)O; [2]): 720 µM | Km (CCCCCCCCCCCCCCO; [2]): 2.4 µM | Km (CCCCCCCCC(C)O; [2]): 1090 µM | Km (CCCCCCCCCCO; [2]): 69.6 µM | Km (CCCCCCCCCCCCCCCCO; [2]): 85 µM | Km (C=CCCCCCCCCCO; [2]): 36.1 µM

C=CCCCCCCCCCO [10-Undecen-1-ol]
Activity Detected (FAO1 or FAO2): X | Activity of FAO2a′ with the alcohol (substrate specificity) (FAO2a′): much better than FAO1 | Activity of FAO2a with the alcohol (substrate specificity) (FAO2a): much better than FAO1

CCCCCCCCCCCCCCCCO [Hexadecanol]
Activity Detected (FAO1 or FAO2): X

CCCCCCCCCCC(C)O (centres unmarked) [2-Dodecanol]
Activity Detected (FAO1 or FAO2): X | Activity of extracts from HOSFFA-induced fermentor samples with the alcohol (fatty alcohol oxidase): no activity | Oxidation by purified C. tropicalis FAO [1]: additional activity

CCCCCCCCCCCCCCO [Tetradecanol]
Activity Detected (FAO1 or FAO2): X | Km FAO2a (FAO2a): lowest Km values | Activity of FAO1 with the alcohol (substrate specificity) (FAO1): the preferred longer-chain alcohol

CCCCCCCCCC(C)O (centres unmarked) [2-Undecanol]
Activity Detected (FAO1 or FAO2): X

OCCCCCCCCCCCCCCCCO [1,16-Hexadecanediol]
Activity Detected (FAO1 or FAO2): X

CCCCCCC(O)CO (centres unmarked) [1,2-Octanediol]
Activity Detected (FAO1 or FAO2): X

FAO1 (Candida tropicalis)
Km (CCCCCCCCO; [3]): 41.0 μM μM | Km (O=C(O)CCCCCCCCCCCCCCCO): 7.4 μM μM | Km (OCCCCCCCCCCCCCCCCO; [3]): 10.3 μM μM | Km (CCCCCCCCCCCCO; [3]): 14.9 μM μM | Km (OCCCCCCCCCCO; [3]): 67.0 μM μM | Km (CCCCCCCCCCCCCCO; [3]): 28.1 μM μM | Km (CCCCCCCCCCO; [3]): 15.1 μM μM | Km (CCCCCCCCCCCCCCCCO; [3]): 11.9 μM μM | Km (C=CCCCCCCCCCO; [3]): 9.9 μM μM

CCCCCCCCCCCCCCC(C)O (centres unmarked) [2-Hexadecanol]
Activity Detected (FAO1 or FAO2): X

O=C(O)CCCCCCCCCO [10-Hydroxydecanoic acid]
Activity Detected (FAO1 or FAO2): X

CCCCCCCCC(C)O (centres unmarked) [2-Decanol]
Activity Detected (FAO1 or FAO2): X

FAO2a (Candida tropicalis; S177L)
Km (CCCCCCCCCCC(O)CO; [3]): 998 µM | Km (CCCCCCCCO; [3]): 503 µM | Km (CCCCCCCCCCC(C)O; [3]): 41.3 µM | Km (CCCCCCCCCC(C)O; [3]): 141 µM | Km (OCCCCCCCCCCCCCCCCO; [3]): 37.3 µM | Km (CCCCCCCCCCCCO; [3]): 2.5 µM | Km (OCCCCCCCCCCO; [3]): 425 µM | Km (CCCCCCCCCCCCCCC(C)O; [3]): 350 µM | Km (CCCCCCCCCCCCCCO; [3]): 4.6 µM | Km (CCCCCCCCC(C)O; [3]): 934 µM | Km (CCCCCCCCCCO; [3]): 74 µM | Km (CCCCCCCCCCCCCCCCO; [3]): 56 µM | Km (C=CCCCCCCCCCO; [3]): 45 µM

CCCCCCCCCCCCO [Dodecanol]
Activity Detected (FAO1 or FAO2): X | Activity of FAO2a′ with the alcohol (substrate specificity) (FAO2a′): preferred 1-dodecanol above all other 1-alkanols | Activity of FAO2a with the alcohol (substrate specificity) (FAO2a): preferred 1-dodecanol above all other 1-alkanols | Km FAO2a (FAO2a): lowest Km values | Oxidation by C. tropicalis FAO (Kemp et al. 1988) [1]: maximal activity

CCCCCCCCCCO [Decanol]
Activity Detected (FAO1 or FAO2): X

CCCCCCCCO [Octanol]
Activity Detected (FAO1 or FAO2): X | Oxidation by C. maltosa FAO (FAO from C. maltosa): highest activity | Activity of FAO1 with the alcohol (substrate specificity) (FAO1): preferred 1-octanol as substrate

16-Hydroxydodecanoic acid
Activity Detected (FAO1 or FAO2): X

O=C(O)CCCCCCCCCCCCCCCO [16-hydroxy-hexadecanoic, 16-hydroxyhexadecanoic acid]
Activity of extracts from HOSFFA-induced fermentor samples with the alcohol (fatty alcohol oxidase): good activity | Oxidation by C. maltosa FAO (FAO from C. maltosa): fairly low rates of oxidation | Km FAO1 (FAO1; pH 7.6, HEPES/Triton X-100 buffer, enzyme constant, alcohol concentration varied): lowest Km value | Oxidation by C. tropicalis FAO (Kemp et al. 1988) [1]: oxidize

CCCCCCO [Hexanol]
Activity Detected (FAO1 or FAO2): X
